Experiment [1] relates to Oxidosqualene Cyclase in HepG2 Cells. The experiment in a line: Inhibition of Oxidosqualene Cyclase in HepG2 Cells (IC50 for the inhibition of [14C]cholesterol biosynthesis). Format: cell-based. To be noted: Homo sapiens, read-out: IC50 HepG2 Cell. The procedure: 1. Inhibition of Oxidosqualene Cyclase in HepG2 Cells (IC50)
HepG2 cells, obtained from American Type Culture Collection, are seeded into plastic 6-well multiwell dishes and grown to 60-70% confluency in an atmosphere of 5%CO2 at 37° C. using Minimal Essential Media supplemented with 10% fetal bovine serum as culture media. The cells are washed and the media is replaced with one containing 10% lipoprotein-deficient serum instead of 10% fetal bovine serum. Twenty-four hours later the test compound is added to the culture media in ethanol to obtain concentrations of between 0 and 100 μM. One hour after the addition of the test compound, 2.0 μC of [^14 C]acetate is added to each well and the cells are allowed to incubate for an additional 2-3 hours. The cells are then harvested and extracted for analysis of ^14 C-labeled cholesterol, squalene monoepoxide and squalene diepoxide. These metabolites are separated and identified by a combination of high performance liquid chromatography and flow-through liquid scintillation spectroscopy. An IC50 for the inhibition of [^14 C]cholesterol biosynthesis is calculated based on the radioactivity in controls and treated cells.

The next experiment relates to Oxidosqualene cyclase. The experiment in a line: Inhibition of Purified Oxidosqualene Cyclase (I10). Format: biochemical. The note with it: purified oxidosqualene cyclase from rat liver microsomes, 10 μM [3H]squalene monoepoxide, pH 7.4, 37° C., 40 minutes.

In the case of `CC(C)CCSCCCCC(=O)N1CC[C@H]2[C@H](C)[C@@H](O)CC[C@]2(C)C1` (relative stereo) [Example 100905, N-[1-Oxo-5-(3-methylbutylmercapto)pentyl]-8-aza-4α,10-dimethyl-trans-decal-3β-ol], the 50% inhibitory concentration (IC50) in experiment [1] was found to be 52 µM. The “I10 purified enzyme (percent inhibition of oxidosqualene cyclase activity at 10 μM test compound)” value in the experiment on Oxidosqualene cyclase was found to be 100%.

Turning to `CCCCCCCCCCCC(=O)N1CC[C@H]2[C@H](C)[C@@H](O)CC[C@]2(C)C1` (relative stereo) [Example 102417, N-(1-Oxododecyl)-8-aza-4α,10-dimethyl-trans-decal-3β-ol], in experiment [1], the IC50 was 0.7 µM.

The record behind these values is patent US5278171A, “Azadecalin amides and thioamides as inhibitors of cholesterol biosynthesis” (Merrell Dow Pharmaceuticals Inc., priority 1991, dated 1994).
